Patent publication US5378838A, “Benzodiazepine cholecystokinin antagonists” (Merck & Co., Inc., priority 1993, dated 1995)
Read-outs that look alike come from different tables or passages of the source. Non-standard residues stand in square brackets, D forms with d. Residues, ends and D or L forms follow the SMILES beside them. *: point of attachment. sY = N[C@@H](Cc1ccc(OS(=O)(=O)O)cc1)C(=O)O; Cbz = O=C(OCc1ccccc1)*

How the values were obtained:
[1] = system: CCK-B receptors; conditions: literature; cited from earlier work
[2] = system: CCK; conditions: literature; cited from earlier work
[3] = biological target: T1, CCK receptor (pancreas) (Rattus norvegicus, UniProt P30551); test: CCK Receptor Binding (Pancreas), inhibition of 125I-CCK-8 binding; set-up: species or system rat (male Sprague-Dawley)
T1 construct: The whole pancreas was dissected free of fat tissue and was homogenized; from tissue; host or cells: whole pancreas membranes of male Sprague-Dawley rats
T1 sequence (P30551 1-444): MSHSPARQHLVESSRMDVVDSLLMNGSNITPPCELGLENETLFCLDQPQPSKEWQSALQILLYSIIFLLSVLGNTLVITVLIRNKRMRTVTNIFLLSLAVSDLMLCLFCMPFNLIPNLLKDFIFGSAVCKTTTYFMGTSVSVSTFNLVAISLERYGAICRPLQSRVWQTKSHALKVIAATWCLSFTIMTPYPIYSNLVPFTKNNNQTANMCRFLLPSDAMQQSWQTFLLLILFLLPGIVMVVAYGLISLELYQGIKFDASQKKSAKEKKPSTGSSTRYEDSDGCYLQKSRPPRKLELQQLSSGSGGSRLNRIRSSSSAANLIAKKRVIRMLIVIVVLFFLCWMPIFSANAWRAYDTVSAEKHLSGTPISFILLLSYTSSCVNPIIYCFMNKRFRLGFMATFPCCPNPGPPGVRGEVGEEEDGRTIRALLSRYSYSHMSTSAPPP
Method: 1. CCK Receptor Binding (Pancreas)
Male Sprague-Dawley rats (150-200 g) were sacrificed by decapitation. The whole pancreas was dissected free of fat tissue and was homogenized in 25 volumes of ice-cold 10 mM Hepes buffer with 0.1% soya bean trypsin inhibitor (pH 7.4 at 25° C.) with a Kinematica Polytron. The homogenates were centrifuged at 47,800 g for 10 min. Pellets were resuspended in 10 volumes of binding assay buffer (20 mM Hepes, 1 mM EGTA, 5 mM MgCl2, 150 mM NaCl, bacitracin 0.25 mg/ml, soya bean trypsin inhibitor 0.1 mg/ml, and bovine serum albumin 2 mg/ml, pH 6.5 at 25° C.) using a teflon homogenizer, 15 strokes at 500 rpm. The homogenate was further diluted in binding assay buffer to give a final concentration of 0.5 mg original wet weight/l ml buffer. […] All assays were run in duplicate. The reaction mixtures were incubated at 25° C. for 2 hours and the reaction terminated by rapid filtration (Brandell 24 well cell harvester) over Whatman GF/C filters, washing 3×4 mls with ice-cold 100 mM NaCl. The radioactivity on the filters was counted with a LKB gamma counter.
Drug displacement studies were performed with at least 10 concentrations of compounds of formula 1 and the IC50 values were determined by regression analysis.

[4] = biological target: T2, CCK receptor (brain) (Cavia porcellus, UniProt H0VZC5); test: CCK Receptor Binding (Brain), inhibition of 125I-CCK-8 binding; set-up: species or system guinea pig (male Hartley); conditions: guinea pig cortex, 50 pM 125I-CCK-8, pH 6.5, 25° C., 2 hours
T2 construct: the cortex was removed and homogenized in 25 mL ice-cold 0.32M sucrose; from tissue; host or cells: cortex P2 membranes of male Hartley guinea pigs
T2 sequence (H0VZC5 1-426): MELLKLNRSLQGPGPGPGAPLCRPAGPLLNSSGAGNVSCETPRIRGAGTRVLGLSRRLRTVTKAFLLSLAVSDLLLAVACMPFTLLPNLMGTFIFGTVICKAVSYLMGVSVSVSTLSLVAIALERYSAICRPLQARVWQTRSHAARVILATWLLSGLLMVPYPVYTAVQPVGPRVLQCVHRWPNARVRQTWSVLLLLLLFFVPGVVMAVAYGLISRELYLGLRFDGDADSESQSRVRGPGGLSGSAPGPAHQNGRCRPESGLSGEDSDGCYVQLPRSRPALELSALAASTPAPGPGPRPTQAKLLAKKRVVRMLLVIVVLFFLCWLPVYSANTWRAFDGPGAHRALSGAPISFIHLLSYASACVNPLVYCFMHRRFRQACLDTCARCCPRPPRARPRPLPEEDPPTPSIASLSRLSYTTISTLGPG
Method: CCK-8 sulphated was radiolabelled and the binding was performed according to the description for the pancreas method with minor modifications.
Male Hartley guinea pigs (300-500g) were sacrificed by decapitation and the cortex was removed and homogenized in 25 mL ice-cold 0.32M sucrose. The homogenates were centrifuged at 1000 g for 10 minutes and the resulting supernatant was recentrifuged at 20,000 g for 20 minutes. […] All assays were run in duplicate. The reaction mixtures were incubated at 25° C. for 2 hours and then the reaction was terminated on Whatman GF/C filters by rapid filtration (Brandell 24 well cell Harvester) with 3×5 ml washes of cold 100 mM NaCl. The radioactivity on the filters was then counted with a LKB gamma counter.
Drug displacement studies were performed with at least 10 concentrations of compounds of formula 1 and the IC50 values were determined by regression analysis. IC50 refers to the concentration of the compound required to inhibit 50% of specific binding of ^125 I-CCK-8.

In the case of `Cc1cccc(NC(=O)N[C@@H]2N=C(c3ccccc3)c3ccccc3N(C)C2=O)c1` [(R)-N-(2,3-dihydro-1-methyl-2-oxo-5-phenyl-1H-1,4-benzodiazepin-3-yl)-N^1-(3-methylphenyl) urea], the “antagonist of CCK-B receptors (in words)” value [1] is listed as “potent and selective antagonist of CCK-B receptors”.

For `CSCC[C@H](NC(=O)[C@H](Cc1ccc(OS(=O)(=O)O)cc1)NC(=O)OCc1ccccc1)C(=O)NCC(=O)N[C@@H](Cc1c[nH]c2ccccc12)C(=O)N[C@@H](CCSC)C(=O)N[C@@H](CC(=O)O)C(N)=O` [Cbz-Tyr(SO3 H)-Met-Gly-Trp-Met-Asp-NH2] (Cbz-[sY]MGWMD-NH2), the “CCK antagonist / agonist activity (in words)” value [2] is listed as “partial agonist”.

In the case of `CN1C(=O)[C@H](NC(=O)Nc2ccc3c(c2)CCC(N)(C(=O)O)C3)N=C(c2ccccc2)c2ccccc21` (stereo partly drawn) [Example 20, N-{(3R)-1,3-Dihydro-1-methyl-2-oxo-5-phenyl-1H-1,4-benzodiazepin-3-yl}-N'-{[6-(2-(R,S)-amino-1,2,3,4-tetrahydro-2-naphthoic acid)]-urea}], the IC50 [3] is reported as > 3 µM and the IC50 [4] is reported as 3520 nM.

In the case of `COC(=O)C1(NC(=O)OC(C)(C)C)CCc2c(cccc2NC(=O)N[C@@H]2N=C(c3ccccc3)c3ccccc3N(C)C2=O)C1` (stereo partly drawn) [Example 21, N-{(3R)-1,3-Dihydro-1-methyl-2-oxo-5-phenyl-1H-1,4-benzodiazepin-3-yl}-N'-{[5-(methyl-2-(R,S)-tert-butyloxycarbonylamino-1,2,3,4-tetrahydro-2-naphthoate)]-urea}], the IC50 ([3]; read-out: IC50 125I-CCK Pancreas, rat pancreas, 50 pM 125I-CCK-8, pH 6.5, 25° C., 2 hours) is reported as > 3 µM and the IC50 [4] is reported as 1690 nM.

In the case of `COC(=O)C1(N)CCc2c(cccc2NC(=O)N[C@@H]2N=C(c3ccccc3)c3ccccc3N(C)C2=O)C1` (stereo partly drawn) [Example 22, N-{(3R)-1,3-Dihydro-1-methyl-2-oxo-5-phenyl-1H-1,4-benzodiazepin-3-yl}-N'-{[5-(methyl-2-(R,S)-amino-1,2,3,4-tetrahydro-2-naphthoate)]-urea}], the IC50 [3] is reported as > 3 µM and the IC50 [4] is reported as 2160 nM.

With `CN1C(=O)[C@H](NC(=O)Nc2cccc3c2CCC(N)(C(=O)O)C3)N=C(c2ccccc2)c2ccccc21` (stereo partly drawn) [Example 23, N-{(3R)-1,3-Dihydro-1-methyl-2-oxo-5-phenyl-1H-1,4-benzodiazepin-3-yl}-N'-{[5-(2-(R,S)-amino-1,2,3,4-tetrahydro-2-naphthoic acid)]-urea}] the IC50 [3] was > 3 µM and the IC50 [4] was > 3000 nM.

In the case of `CCCC(=O)Nc1nc2c(ncn2[C@@H]2O[C@@H]3COP(=O)(O)O[C@H]3[C@H]2OC(=O)CCC)c(=O)[nH]1` [dibutyryl cyclic GMP], the “CCK antagonist / agonist activity (in words)” value [2] is listed as “the most potent”.
